This note sets out measurements from US9988400B2 (Genentech, Inc., priority 2013, dated 2018).

In this assay the target is T1, HEK cells stably transfected with tetracycline inducible hNR1 and hNR2A (Homo sapiens, UniProt Q05586+Q12879).
T1 construct: expressed in transfected cells; host or cells: HEK cells, stably transfected, tetracycline/doxycycline inducible
Kind of assay: Assay 1: Cell-Based Assay, cytosolic calcium response to positive allosteric modulators (with 30 μM glycine and 300 nM L-glutamate, EC30). The conditions noted are these: for EC50: cytosolic calcium response, with 30 μM glycine and 300 nM L-glutamate (EC30), — = no plateau was reached; for Max %: responses scaled relative to 100 μM L-glutamate maximal response (100%) and 0 μM L-glutamate (0%). In short, it runs like this:
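Cells induced 24 h with 7.5 μg mL^−1 doxycycline plus 500 μM (+)-ketamine, loaded 60 min at 37 °C with calcium dye in Mg-free HBSS (1.8 mM Ca, probenecid, 10 μM (+)-ketamine, pH 7.15). Peak RFU over 5 min after compound addition, scaled to 100 μM L-glutamate (100%) and 0 μM (0%); four-parameter Hill fit for EC50, max % if no plateau.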

Usually EC50 stands for the midpoint of the concentration-response curve.

T1 sequence (Q12879 23-1464, other chains not shown): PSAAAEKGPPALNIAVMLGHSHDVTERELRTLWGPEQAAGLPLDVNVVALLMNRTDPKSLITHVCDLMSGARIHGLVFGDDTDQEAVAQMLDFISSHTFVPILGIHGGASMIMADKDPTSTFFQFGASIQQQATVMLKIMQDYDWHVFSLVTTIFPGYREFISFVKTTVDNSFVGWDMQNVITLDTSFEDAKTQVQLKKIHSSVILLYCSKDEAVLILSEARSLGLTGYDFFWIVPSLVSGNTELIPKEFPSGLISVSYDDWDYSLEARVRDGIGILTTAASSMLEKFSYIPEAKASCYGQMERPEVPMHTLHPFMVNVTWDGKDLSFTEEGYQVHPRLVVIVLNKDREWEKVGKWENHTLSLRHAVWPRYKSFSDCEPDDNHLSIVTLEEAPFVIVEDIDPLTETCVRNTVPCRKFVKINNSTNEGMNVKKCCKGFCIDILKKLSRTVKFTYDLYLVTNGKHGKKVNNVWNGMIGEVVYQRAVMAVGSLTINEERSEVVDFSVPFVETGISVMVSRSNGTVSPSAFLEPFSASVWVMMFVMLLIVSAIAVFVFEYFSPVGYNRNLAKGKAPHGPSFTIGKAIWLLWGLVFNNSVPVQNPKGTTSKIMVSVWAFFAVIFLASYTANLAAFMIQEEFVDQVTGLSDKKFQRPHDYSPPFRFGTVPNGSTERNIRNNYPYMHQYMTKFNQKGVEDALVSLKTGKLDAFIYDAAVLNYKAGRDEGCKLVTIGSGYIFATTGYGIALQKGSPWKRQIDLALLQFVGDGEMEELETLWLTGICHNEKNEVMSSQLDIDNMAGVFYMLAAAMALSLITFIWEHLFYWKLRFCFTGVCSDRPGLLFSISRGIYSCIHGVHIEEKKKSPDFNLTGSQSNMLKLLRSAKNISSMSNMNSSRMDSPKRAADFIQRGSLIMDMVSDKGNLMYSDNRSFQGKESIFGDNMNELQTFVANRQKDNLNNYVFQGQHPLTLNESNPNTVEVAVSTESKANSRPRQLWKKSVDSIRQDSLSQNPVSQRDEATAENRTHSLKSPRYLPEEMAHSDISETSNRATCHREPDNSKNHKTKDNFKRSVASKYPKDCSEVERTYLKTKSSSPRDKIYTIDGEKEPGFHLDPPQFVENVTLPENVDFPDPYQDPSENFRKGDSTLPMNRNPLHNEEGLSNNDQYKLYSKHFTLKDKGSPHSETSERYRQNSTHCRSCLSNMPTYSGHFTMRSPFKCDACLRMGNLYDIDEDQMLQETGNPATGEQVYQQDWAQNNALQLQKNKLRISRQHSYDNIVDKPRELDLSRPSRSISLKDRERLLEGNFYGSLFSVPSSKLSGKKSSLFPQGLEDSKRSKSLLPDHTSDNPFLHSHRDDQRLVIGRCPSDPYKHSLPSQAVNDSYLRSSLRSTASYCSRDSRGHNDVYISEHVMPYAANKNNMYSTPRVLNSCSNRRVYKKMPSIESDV

As to `CCN(Cc1cc(=O)n2c(-c3cncnc3)c(C)sc2n1)c1cccc(C#N)c1` [Example 5.10, 3-(ethyl((2-methyl-5-oxo-3-(pyrimidin-5-yl)-5H-thiazolo [3,2-a]pyrimidin-7-yl)methyl)amino)benzonitrile], under “Table 2”, the EC50 is 18000 nM and the Max % amounted to 133%. Turning to `CCN(Cc1cc(=O)n2c(CNCCO)c(C)sc2n1)c1ccc(F)cc1` [Example 10.22, 7-[(N-ethyl-4-fluoro-anilino)methyl]-3-[(2-hydroxyethylamino)methyl]-2-methyl-thiazolo[3,2-a]pyrimidin-5-one], under “Table 2”, the half-maximal effective concentration (EC50) came to 7500 nM and the Max % worked out at 156%.

Take `CCNC(=O)c1c(C)sc2nc(Cc3cc(F)c(F)cc3CC)cc(=O)n12` [Example 21.19, N-ethyl-7-(2-ethyl-4,5-difluorobenzyl)-2-methyl-5-oxo-5H-thiazolo[3,2-a]pyrimidine-3-carboxamide]: for the setting “Table 2”, the EC50 turned out to be 7400 nM and the Max % is reported as 145%. In the case of `N#Cc1cccc(Cc2cc(=O)n3c(C4CC4C(F)(F)F)c(C(F)(F)F)sc3n2)c1F` (centres unmarked) [compound 146, 2-fluoro-3-[[5-oxo-2-(trifluoromethyl)-3-[2-(trifluoromethyl)cyclopropyl]thiazolo[3,2-a]pyrimidin-7-yl]methyl]benzonitrile], the EC50 (Table 3) was determined as 156 nM. With `Cc1sc2nc(Cn3nc(C(F)(F)F)cc3Cl)cc(=O)n2c1C(=O)NCC(F)(F)F` [compound 65, 7-[[5-chloro-3-(trifluoromethyl)pyrazol-1-yl]methyl]-2-methyl-5-oxo-N-(2,2,2-trifluoroethyl)thiazolo[3,2-a]pyrimidine-3-carboxamide], the half-maximal effective concentration (EC50) (Table 3) was 551 nM.

Consider `Cc1sc2nc(C(C)n3nc(C(F)(F)F)cc3C3CC3)cc(=O)n2c1C1(C)CC1CO` (centres unmarked) [Example 19.2, 7-(1-(5-cyclopropyl-3-(trifluoromethyl)-1H-pyrazol-1-yl)ethyl)-3-(2-(hydroxymethyl)-1-methylcyclopropyl)-2-methyl-5H-thiazolo[3,2-a]pyrimidin-5-one], for which the Max % (Table 2) is listed as 64.2%. `COc1cc(C(F)(F)F)nn1Cc1cc(=O)n2c(C3CC3C#N)c(C)sc2n1` (centres unmarked) [compound 209, 2-[7-[[5-methoxy-3-(trifluoromethyl)pyrazol-1-yl]methyl]-2-methyl-5-oxo-thiazolo[3,2-a]pyrimidin-3-yl]cyclopropanecarbonitrile]: where the note is “Table 3”, the 50% effective concentration (EC50) turned out to be 66.6 nM.

For the compound `CCN(Cc1cc(=O)n2c(-c3cnccn3)c(C)sc2n1)c1ccc(F)cc1` [Example 5.27, 7-[(N-ethyl-4-fluoro-anilino)methyl]-2-methyl-3-pyrazin-2-yl-thiazolo[3,2-a]pyrimidin-5-one], where the note is “Table 2”, the concentration for a half-maximal effect (EC50) is 1100 nM and the Max % stood at 139%.

Regarding `CCNC(=O)c1c(C)sc2nc(Oc3cccc(C#N)c3F)cc(=O)n12` [compound 68, 7-(3-cyano-2-fluoro-phenoxy)-N-ethyl-2-methyl-5-oxo-thiazolo[3,2-a]pyrimidine-3-carboxamide], the EC50 (Table 3) amounted to 30400 nM. For `Cc1sc2nc(Cn3nc(C(F)(F)F)cc3Cl)cc(=O)n2c1C1CC1CO` (single isomer, unassigned) [compound 137], the EC50 (Table 3) came out at 420 nM. For `Cc1sc2nc(Cn3nc(C(F)(F)F)cc3Cl)cc(=O)n2c1-c1cncc(C#N)c1` [compound 197, 5-[7-[[5-chloro-3-(trifluoromethyl)pyrazol-1-yl]methyl]-2-methyl-5-oxo-thiazolo[3,2-a]pyrimidin-3-yl]pyridine-3-carbonitrile], the concentration for a half-maximal effect (EC50) (Table 3) was found to be 327 nM. On to `Cc1sc2nc(Cn3nc(C(F)(F)F)cc3Cl)cc(=O)n2c1-c1ncco1` [compound 158, 7-[[5-chloro-3-(trifluoromethyl)pyrazol-1-yl]methyl]-2-methyl-3-oxazol-2-yl-thiazolo[3,2-a]pyrimidin-5-one], for which the 50% effective concentration (EC50) (Table 3) was 1420 nM. With `CNC(=O)c1c(C)sc2nc(Cc3cc(C(F)(F)F)ccc3Cl)cc(=O)n12` [compound 14, 7-[[2-chloro-5-(trifluoromethyl)phenyl]methyl]-N,2-dimethyl-5-oxo-thiazolo[3,2-a]pyrimidine-3-carboxamide], for the setting “Table 3”, the half-maximal effective concentration (EC50) worked out at 1560 nM.
